Reference: patent US7892776B2, “Screening assay to identify modulators of protein kinase A” (The Regents of the University of California, priority 2007, dated 2011)
pIC50, pKd: −log10 of the molar value. No end group written: not given here.

Legend:
[1] = target: C-subunit of protein kinase A (Mus musculus, UniProt P05132, C200A); assay: biochemical
type Iα PKA holoenzyme = target: T1, type Iα PKA holoenzyme (Bos taurus, UniProt P00514); assay: High throughput FP assay format (TR-IP20, C-subunit, R-subunit, cGMP); assay type: binding; details: for reduction in FP signal due to competition with ATP: HTS format, compound at 200 μM, 2 mM ATP; for HTS result (agonist / antagonist by FP reading versus 3 μM cGMP alone): tested at 25 μM, 40 nM TR-IP20
T1 construct: made in house; host or cells: E. coli
Experimental: The high throughput screening (HTS) was performed by addition of 1 μL of a test compound in DMSO to 49 μL buffer containing TR-IP20, C-subunit, R-subunit, and cGMP.
An agonistic Z′-factor was calculated between the half maximal and maximal FP response, while the antagonistic Z′-factor was calculated between the minimal and half maximal FP response. The maximal FP response was calculated by adding 1 μL cGMP in DMSO (500 μM final) to 49 μL HTS mix. Half maximal binding was calculated when 1 μL DMSO was used instead and minimal FP response was calculated by adding 1 μL Rp-8-Br-cAMPS in DMSO (50 μM final). Final DMSO concentration was 2%.
Antagonism by Rp-8-Br-cAMPS was measured with the HTS format.
Finally, to validate the assay, screening was performed on a selection of nucleotide and xanthine derivatives. […] Included in Set 1 are the known PKA effectors 8-Cl-cAMP (agonist) and Rp-8-Br-cAMPS (antagonist).

PKA C-subunit = PKA C-subunit (Homo sapiens, UniProt P17612); details: cited from earlier work

T1 sequence (P00514 with tags, fused parts or gaps): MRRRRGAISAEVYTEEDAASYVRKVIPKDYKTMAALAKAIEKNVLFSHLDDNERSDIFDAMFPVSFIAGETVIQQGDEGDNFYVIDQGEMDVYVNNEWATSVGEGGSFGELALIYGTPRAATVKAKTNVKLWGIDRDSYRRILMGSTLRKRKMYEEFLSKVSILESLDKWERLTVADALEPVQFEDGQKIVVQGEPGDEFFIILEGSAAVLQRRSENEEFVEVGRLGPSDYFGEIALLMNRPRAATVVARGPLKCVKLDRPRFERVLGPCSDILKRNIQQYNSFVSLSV

Molecule: GRTGRRNAIHD-NH2 [PKI (14-24)]
- pIC50 [1]: 5.57

Molecule: CN[C@@H]1C[C@H]2O[C@@](C)([C@@H]1OC)n1c3ccccc3c3c4c(c5c6ccccc6n2c5c31)C(=O)NC4 [staurosporine]
- reduction in FP signal due to competition with ATP (type Iα PKA holoenzyme): no reduction in FP signal

Molecule: Nc1ncnc2c1ncn2[C@@H]1O[C@H](COP(=O)(O)OP(=O)(O)OP(=O)(O)O)[C@@H](O)[C@H]1O [ATP]
- enhancement of the affinity of the C-subunit for ATP (PKA C-subunit; in the presence of the R-subunit or IP20, literature (Lew et al. 1997)): over 2000 fold
- pKd (PKA C-subunit; read-out: affinity of ATP for the PKA C-subunit): ~4.60

Molecule: O=S(=O)(NCCNCC=Cc1ccc(Br)cc1)c1cccc2cnccc12 [H89, N-[2-(p-bromocinnamylamino)ethyl]-5-isoquinolinesulfonamide]
- reduction in FP signal due to competition with ATP (type Iα PKA holoenzyme): no reduction in FP signal

Molecule: Nc1ncnc2c1nc(Cl)n2[C@@H]1O[C@@H]2COP(=O)(O)O[C@H]2[C@H]1O [8-Cl-cAMP]
- HTS result (agonist / antagonist by FP reading versus 3 μM cGMP alone) (type Iα PKA holoenzyme): agonist

Molecule: Nc1ncnc2c1nc(Br)n2C1OC2COP(O)(=S)OC2C1O (stereo not shown) [Rp-8-Br-cAMPS]
- HTS result (agonist / antagonist by FP reading versus 3 μM cGMP alone) (type Iα PKA holoenzyme): antagonist
